Data published in patent publication US20210052566A1, “METHODS FOR TREATING HEPATITIS B VIRUS (HBV) INFECTION” (INSERM (INSTITUT NATIONAL DE LA SANTÉ ET DE LA RECHERCHE …, priority 2018, published 2021).

Legend:
HBV genotype D = test: Anti-HBV properties in persistently infected dHepaRG cells, genotype D (post-infection treatment); type: cell-based, Hepatitis B virus; settings: treated three times with 10 microM
Description: (§1) FIG. 1. Experimental outlines. Treatment schemes: (a) Treatments in pre-infection: dHepaRG cells were treated for 24 h (at day −1) with 100 nM of PreS1 peptide (PreS1-pep) or 10 μM of 1C8, or untreated (NT). At day 0, cells were inoculated with HBV (MOI=250) or with HDV (MOI=25) in the presence of drugs for 24 h. For the tenofovir control (TDF at 10 μM), cells were treated at day 1 and 4 post-infection. Supernatant and cells were harvested at day 7 post-infection. (b) Treatments in post-infection: dHepaRG cells were inoculated with HBV (MOI=250) or with HDV (MOI=25). At days 4, 7 and 9 post infection, cells were treated with TDF 10 μM, lamivudine (3TC) at 10 μM, 1C8 10 μM or untreated (NT). Supernatant and cells were harvested at day 11 postinfection.
FIG. 5. Anti-HBV properties of 1C8 in persistently infected dHepaRG cells: genotype D. Differentiated HepaRG were infected with HBV genotype D at a MOI of 100 vge/cell or HDV genotype 1 at a MOI of 10 vge/cell for 7 days before being treated trice every 2-3 days with indicated molecules at a concentration of 10 microM. A) Total DNA and RNA were extracted from cells and subjected to qPCR and RTqPCR to detect HBV cccDNA, total HBV RNA or pregenomic HBV RNA. B) HBs and HBe secreted antigens in supernatant were quantified by ELISA, whereas HBV DNA contained in virions was quantified by qPCR after viral nucleic acid extraction from supernatant. C) Intracellular HDV RNA was quantified by RTqPCR after total RNA extraction from cells. D) Viability was monitored in 1C8-treated (or control treated; puromycin is a positive toxic molecule) cells by CellTiter-Glo® luminescent cell viability assay. Results are the mean+SEM of n=3 performed with 3 different differentiations of HepaRG. Statistics were done by two-tailed Mann-Whitney test, with following significativity: *P<0.05, **P<0.01, ***P<0.001, ****P<0.0001. nd=not determined
Human liver progenitor HepaRG cells were cultured in Williams medium (ThermoFisher) supplemented with 10% of FBS (Perbio), Penicillin/Streptomycin (500 U/mL), glutamine (2 mM), hydrocortisone Upjohn (2.5 mg/L; Serb laboratory), insulin (5 mg/L; Sigma Aldrich). For the differentiation process 2% of DMSO was added to the above-described supplemented Williams medium. […] The multiplicity of infection (MOI; expressed as virus genome equivalent/cell) is indicated in the figure legends, but was of 100 vge/cell if not precised.
From cell culture supernatants, secreted HBe and HBs antigens were quantified by ELISA, using a chemiluminescence immunoassay kit (Autobio, China) following manufacturer's instructions. […]
A HBV standard was used for quantification of extracellular viral DNA and RNA. […]

HDV genotype 1 = test: Establishment of HDV infection in dHepaRG (treatment 24 h before and during inoculation); type: cell-based, hepatitis delta virus; settings: 1C8 10 microM, Entry Inh. 100 nM
Description: as §1
FIG. 7. Effect of 1C8 on de novo establishment of ccDNA in dHepaRG (genotype D). […] B) HBs and HBe secreted antigens in supernatant were quantiUied by ELISA, whereas HBV DNA contained in virions was quantified by qPCR after viral nucleic acid extraction from supernatant. […] Statistics were done by two-tailed Mann-Whitney test, with following signiUicativity: *P<0.05, **P<0.01, ***P<0.001, ****P<0.0001. nd=not determined.

[1] = target: serine/arginine-rich splicing factor 10 (SRSF10) (human) (UniProt O75494); test: Strep-Tactin affinity purification of StrepTag-HBc complexes from hepatocyte nuclei, LC-MS/MS
serine/arginine-rich splicing factor 10 (SRSF10) (human), sequence (O75494 whole entry): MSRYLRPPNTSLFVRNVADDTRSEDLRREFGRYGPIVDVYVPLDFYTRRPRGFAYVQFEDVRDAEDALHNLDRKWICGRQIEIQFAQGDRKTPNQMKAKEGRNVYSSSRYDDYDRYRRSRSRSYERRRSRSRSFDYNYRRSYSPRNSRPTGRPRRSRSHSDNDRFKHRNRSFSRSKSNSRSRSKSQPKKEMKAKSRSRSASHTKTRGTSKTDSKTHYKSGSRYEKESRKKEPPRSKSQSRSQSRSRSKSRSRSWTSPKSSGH

StrepTag-HBc (core/capsid protein of HBV with a StrepTag at the N terminus), sequence (P03146 whole entry): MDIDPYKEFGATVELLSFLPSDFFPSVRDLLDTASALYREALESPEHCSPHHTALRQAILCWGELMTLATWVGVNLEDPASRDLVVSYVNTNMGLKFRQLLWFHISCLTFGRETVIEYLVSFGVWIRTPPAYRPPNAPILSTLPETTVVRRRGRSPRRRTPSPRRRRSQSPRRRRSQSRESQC

## C[C@H](Cn1cnc2c(N)ncnc21)OCP(=O)(O)O [tenofovir, reference compound]
HBV genotype D
  impact on accumulation of intracellular HBV RNA: not capable to impact

## Entry Inh.: PreS1 peptide, aa 2 to 48 of HBV PreS1 (SEQ ID No 1), N-terminal myristoyl, used for inhibiting HBV entry [reference compound]
HDV genotype 1
  block of the establishment of HDV infections: inhibited

## StrepTag-HBc (core/capsid protein of HBV with a StrepTag at the N terminus)
[1]
  enrichment in HBc complexes: 3000 times
